Entries after “also recorded” stand apart in the source; their conditions may differ.
Columns and labels:
mouse cornea [1] = experiment: Corneal sensitivity measurement (Belmonte non-contact aesthesiometer); assay type: in vivo; conditions: for recovery of corneal sensitivity: compared to PEDF+DHA (and RvD6) treatment; for corneal sensitivity: vs vehicle
Experimental: Corneal sensitivity was evaluated at days 3, 6, 9 and 12 after corneal injury and treatment (FIG. 4). A new methodology to measure the sensation in mouse cornea was introduced using the Belmonte non-contact aesthesiometer. […] It is important to note that this range of normal corneal sensitivity is critical to evaluate corneal sensation since the Belmonte non-contact aesthesiometer working flow rate is from 20 to 200 ml/min. The range of normal corneal sensitivity from […] in the mouse was regarded as successful recovery after injury and treatment, and it was used to normalize the measurements.
(§1) Mice were anesthetized with a mix of ketamine (200 mg/kg) and xylazine (10 mg/kg) injected intraperitoneally, and one drop of proparacaine hydrochloride solution (0.5%) was applied to the right eye subjected to injury. As previously described (19, 29), the center of the cornea was demarcated with a 2 mm trephine, and the epithelium and the anterior stroma were gently removed under a surgical microscope using a corneal rust ring remover (Algerbrush II; Alger Equipment Co., Lago Vista, TX, USA). One drop of 0.3% of tobramycin ophthalmic solution (Henry Schein, Melville, NY, USA) was applied to the eye to prevent postoperative infection. The same investigator (J.H.) performed all surgeries. Afterward, 10 μl of PEDF (50 ng/ml) plus DHA (50 nM) or DHA-derived lipid mediators were applied topically, as explained in each experimental design.
The non-contact corneal aesthesiometer has been described as a more reliable method than the standard Cochet-Bonnet aesthesiometer to determine the corneal sensation threshold (54). Therefore, for corneal sensation measurement, the Belmonte non-contact corneal aesthesiometer (55) was used with some modification. Briefly, one researcher held the mouse and kept the air output needle at a distance of 3 mm from the cornea. Another researcher controlled the air flow rate. The measurements started at an air flow rate of 80 ml per minute and then increased gradually by ten units until the mouse started blinking. When the mouse blinked, the air flow rate was recorded as the final corneal sensitivity index.

[2] = tested on: trigeminal ganglion (TG) gene expression; experiment: Trigeminal ganglion RNA sequencing after corneal injury and treatment; assay type: in vivo, mouse; conditions: RNA-seq, 12 days after corneal injury and topical treatment, vs vehicle
Experimental: Because corneal sensory nerves originate in TG neurons, we wanted to validate whether corneal injury could be sensed in the TG and t, in turn, would elicit a gene expression response. Thus, TG were harvested 12 days after injury and treatment with RvD6si or RvD6 or vehicle treatment used as control (FIG. 4) and then RNA-seq analysis was performed. […] The box plots depict two activated genes by RvD6si in this class: C9orf72 and Gpm6a (FIG. 6). We also detected specific genes related to neuropeptides and ion channel receptors in the cornea that are stimulated by the addition of PEDF+DHA (19, 21, 24) (FIG. 6D). The RNA-seq established that RvD6 or RvD6si reduced gene expression of two major neuropeptides, tachykinin precursor 1 (Tac1) that encodes Substance P (SP) and calcitonin-related polypeptide beta (Calcb). It is important to note that these neuropeptides, especially Calcb, are major pain-induced mediators in migraine and other primary headaches (30).
TG corresponding to the injury eye side (n=5) were harvested and kept in RNAlater solution (Thermo Fisher Scientific) until homogenized on ice using a Dounce homogenizer. Total mRNA was extracted using an RNeasy mini kit (Qiagen, Germantown, MD, USA) as described by the manufacturer. Purity and concentration of RNA were determined with a NanoDrop ND-1000 spectrophotometer (Thermo Fisher Scientific), and the samples were stored at −80° C. until used. RNA sequencing was performed using the adapted Smart-seq2 protocol (56). Briefly, one ng of total RNA was reverse transcribed with the Oligo-dT30VN and template-switching oligo (TSO) primers. The total cDNAs were amplified using ISPCR primer, and the library was made using the Nextera XT DNA library preparation kit (Illumina, San Diego, CA, USA). The libraries were pooled using the same molarity and sequenced using the NextSeq 500/550 High Output Kit v2 (75 cycles, Illumina). After demultiplexing, RNA-seq data were aligned to the GENCODE GRCm38 mouse primary genome assembly (Release M22, gencodegenes.org/mouse/) using the RSubread package v1.34.6 for R v3.6.1 (57). The outputted BAM files for sequencing data alignment were counted using featureCounts function (Subread v1.6.5 in Ubuntu LTS 16.4 operating system) (58). Next, the raw count data were subjected to differential gene expression analysis using DESeq2 package for R (59). The adjusted p-values were regarded as the false discover rate (FDR).

mouse cornea [3] = experiment: Mouse corneal epithelium removal inside 2 mm diameter central area; assay type: in vivo; conditions: topical eye drops, 3× daily for 12 days; 2020 (40)
Experimental: as §1

mouse cornea [4] = experiment: Corneal wound healing 20 h after injury (methylene blue stained wounded area); assay type: in vivo; conditions: for corneal wound healing: compared to PEDF+DHA (and RvD6) treatment
Experimental: Studies have shown that PEDF+DHA promotes corneal wound healing in rabbit (20, 21), and in normal and diabetic mice (24, 25) after experimental surgery. We validated the ability of RvD6s (either RvD6 or RvD6si) in stimulating corneal wound healing. The right mouse eyes were injured, and the animals were divided into four groups: vehicle, PEDF+DHA, RvD6, and RvD6si (FIG. 4).
as §1
Mice were euthanized 20 h after injury and treatment, and corneas were stained with 0.5% methylene blue for 20 sec and then washed with PBS for 2 min. Photographs were taken with a dissecting microscope (SMZ 1500; Nikon, Tokyo, Japan) through an attached digital camera (DXM 1200; Nikon). The images corresponding to the wounded area were quantified using Photoshop CC 2014 software (Adobe, San Jose, CA, USA).

corneal nerves = experiment: Corneal nerve analysis (PGP9.5 and SP whole-mount nerve density); assay type: in vivo, mouse
Source text: PEDF+DHA stimulates corneal nerve regeneration in injury animal models (20-25). It was important to confirm the biological activity of RvD6si as a lipid mediator underlying the action of PEDF+DHA. To validate this, mice were injured and treated (as described in FIG. 4). Isolated corneas were stained with PGP 9.5, a pan-neuronal marker, and with SP neuropeptide antibodies. The density of non-injured corneal nerves positive to PGP 9.5 and SP, respectively, was used to normalize the values (FIG. 5). Substance P is a main neuropeptide in mammalian corneas (26-28).
as §1
Twelve days after injury and treatment, mice were euthanized, and the eyes enucleated and fixed with Zamboni's fixative (American Master Tech Scientific, Lodi, CA, USA) for 45 min at room temperature. The corneas were then excised and fixed for an additional 15 min, followed by 3 washes with PBS. To block nonspecific binding, corneas were incubated with 10% normal goat serum plus 0.5% Triton X-100 in PBS for 1 h at room temperature. Afterward, corneas were incubated with the primary antibodies, rabbit monoclonal anti-PGP9.5 (1:500), (ab108986; Abcam, Cambridge, MA, USA), and rat monoclonal anti-substance-P (SP; 1:100) (sc-21715; Santa Cruz Biotechnology, Dallas, TX, USA) for 24 h at room temperature with constant shaking. After being washed with PBS, the corneas were incubated with the corresponding secondary antibodies goat anti-rabbit Alexa-Fluor 488 (1:1000) and goat anti-rat Alexa-Fluor 488 (1:1000) (Thermo Fisher Scientific, Waltham, MA, USA) for 24 h at 4° C. Four radial cuts were performed on each cornea that was flatly mounted on a slide with the endothelium side up and examined with a fluorescent microscope (Deconvolution microscope DP80; Olympus, Tokyo, Japan). The images were merged together to build the entire view of the corneal nerve network. The corneal nerve density was measured using Photoshop CC 2014 (Adobe) as previously described (26, 29).

With `CC/C=C\C[C@@H](O)/C=C/C=C\C/C=C\C/C=C\C=C\[C@H](O)CCC(=O)O` (single isomer, unassigned) [RvD6si] the “recovery of corneal sensitivity” value (mouse cornea [1]) was “more potently”, the “recovery of corneal sensitivity” value (mouse cornea [1]; listed as RvD6i) was “accelerated; also recorded: sooner” and the corneal sensitivity (mouse cornea [1]; day 3 after injury and treatment) was “faster recovery; also recorded: significantly higher”. The corneal sensitivity (mouse cornea [1]; day 6 after injury and treatment) was “faster recovery; also recorded: significantly higher”, the corneal sensitivity (mouse cornea [1]; day 9 after injury and treatment) was “significantly higher” and the “C9orf72 gene expression in TG” value [2] was “activated; also recorded: strong activation”. For the same compound, the “Calcb gene expression in TG” value [2] was “reduced; also recorded: decreased”, the “Gpm6a gene expression in TG” value [2] was “activated; also recorded: strong activation” and the “Nrp1 gene expression in TG” value [2] was “selectively enhanced; also recorded: selective increase”. For the same compound, the “Rictor gene expression in TG” value [2] was “strong induction; also recorded: potently and selectively induces”, the “Tac1 gene expression in TG” value [2] was “reduced; also recorded: decreased” and the “Trpm8 gene expression in TG” value [2] was “selectively enhanced; also recorded: increased expression”. For the same compound, the “C9orf72 gene expression in TG” value ([2]; listed as RvD6i) was “induces”, the “Calcb gene expression in TG” value ([2]; listed as RvD6i) was “decreased; also recorded: down-regulated” and the “Gpm6a gene expression in TG” value ([2]; listed as RvD6i) was “induces”. For the same compound, the “Rictor gene expression in TG” value ([2]; listed as RvD6i) was “strong inducer; also recorded: up-regulated”, the “Tac1 gene expression in TG” value ([2]; listed as RvD6i) was “decreased; also recorded: down-regulated” and the “Trpm8 gene expression in TG” value ([2]; listed as RvD6i) was “increased; also recorded: up-regulated”. For the same compound, the “corneal wound healing, sensitivity and nerve regeneration” value (mouse cornea [3]) was “Increased corneal wound healing, sensitivity”, the “corneal wound healing (wound closure)” value (mouse cornea [4]; 20 h after injury and topical treatment, compared to vehicle) was “greatest increase” and the corneal wound healing (mouse cornea [4]) was “more potently”. The corneal wound healing (mouse cornea [4]; listed as RvD6i) was “accelerated”, the “total corneal nerve density, differences between RvD6si, RvD6, and PEDF+DHA” value (corneal nerves; 12 days after injury and treatment) was “no significant differences” and the “total corneal nerve density (PGP 9.5)” value (corneal nerves; 12 days after injury and treatment, % of the normal (uninjured) cornea) was 62.6±4.2%. The “density of SP-positive nerves” value (corneal nerves; 12 days after injury, compared to the vehicle-treated group) was “higher”.

— patent US20260224521A1, “BIOMOLECULE FOR TREATMENT OF CORNEAL PATHOLOGIES” (Board of Supervisors of Louisiana State University and …, priority 2019, published 2026)
